Measured values from PMC8933014, “Diversely substituted sulfamides for fragment-based drug discovery of carbonic anhydrase inhibitors: synthesis and inhibitory profile” (Journal of Enzyme Inhibition and Medicinal Chemistry, 2022).
Counter-ions that a name gives are not always drawn.

Experiments:
Assay in all cases: stopped-flow CO2 hydration
Format in all cases: biochemical
[1] = biological target: T1, hCA II (Homo sapiens, UniProt P00918); conditions: read-out: Ki (nM)^b / hCA II
T1 construct: gene CA2; recombinant, obtained in-house
Description: stopped-flow CO2 hydration on hCA II

[2] = biological target: T2, hCA XII (Homo sapiens, UniProt O43570); conditions: read-out: Ki (nM)^b / hCA XII
T2 construct: gene CA12; recombinant, obtained in-house
T2 sequence (O43570 25-354): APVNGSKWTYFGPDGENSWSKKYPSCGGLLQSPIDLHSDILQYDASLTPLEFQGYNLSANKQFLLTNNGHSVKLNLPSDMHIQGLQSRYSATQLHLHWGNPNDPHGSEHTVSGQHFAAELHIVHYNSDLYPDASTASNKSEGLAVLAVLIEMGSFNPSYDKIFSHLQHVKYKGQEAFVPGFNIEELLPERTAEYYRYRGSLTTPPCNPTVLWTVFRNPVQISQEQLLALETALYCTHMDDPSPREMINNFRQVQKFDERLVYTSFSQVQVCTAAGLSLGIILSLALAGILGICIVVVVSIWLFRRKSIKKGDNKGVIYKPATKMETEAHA
Description: stopped-flow CO2 hydration on hCA XII

[3] = biological target: T3, hCA IX (Homo sapiens, UniProt Q16790); conditions: read-out: Ki (nM)^b / hCA IX
T3 construct: gene CA9; recombinant, obtained in-house
Description: stopped-flow CO2 hydration on hCA IX

[4] = biological target: T4, hCA I (Homo sapiens, UniProt P00915); conditions: read-out: Ki (nM)^b / hCA I
T4 construct: gene CA1; recombinant, obtained in-house
T4 sequence (P00915 2-261): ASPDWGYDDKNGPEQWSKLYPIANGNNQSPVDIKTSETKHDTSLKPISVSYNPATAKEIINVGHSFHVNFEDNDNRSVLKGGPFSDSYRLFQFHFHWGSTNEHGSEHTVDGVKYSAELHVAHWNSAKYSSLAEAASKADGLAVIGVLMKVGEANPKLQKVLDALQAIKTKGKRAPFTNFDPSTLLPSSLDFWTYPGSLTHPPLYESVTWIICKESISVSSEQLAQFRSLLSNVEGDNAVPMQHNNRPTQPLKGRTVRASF
Description: stopped-flow CO2 hydration on hCA I

Ki [1]	Ki [2]	Ki [3]	Ki [4]	SMILES
42.7 nM	25.3 nM	54.2 nM	75.6 nM	NS(=O)(=O)N1CCC(O)CC1 [2a, 4-Hydroxypiperidine-1-sulphonamide]
32.1 nM	52.5 nM	58.6 nM	64.2 nM	CN1CCN(S(N)(=O)=O)CC1 [2b, 4-Methylpiperazine-1-sulphonamide]
70.5 nM	51.7 nM	30.7 nM	126 nM	NS(=O)(=O)NCc1ccc(F)cc1 [2c, N-(4-Fluorobenzyl)sulfamide]
42.6 nM	59.7 nM	36.8 nM	121 nM	NS(=O)(=O)NC1CCCc2ccccc21 (centres unmarked) [2d, N-(1,2,3,4-Tetrahydronaphthalen-1-yl)sulfamide]
63.4 nM	98 nM	92.7 nM	38.4 nM	NS(=O)(=O)NCC1CCCO1 (centres unmarked) [2e, N-((tetrahydrofuran-2-yl)methyl)sulfamide]
69.8 nM	83.6 nM	78.2 nM	52.1 nM	COC(=O)C1CCCN1S(N)(=O)=O (centres unmarked) [2f, Methyl sulfamoylprolinate]
52.1 nM	38.4 nM	63.2 nM	89.7 nM	CN1CCC(NS(N)(=O)=O)CC1 [2g, (1-Methylpiperidin-4-yl)sulfamide]
120 nM	96.7 nM	58.2 nM	359 nM	NS(=O)(=O)N1CCC(c2ccccc2)CC1 [2h, 4-Phenylpiperidine-1-sulphonamide]
39.8 nM	19.7 nM	65.1 nM	28.4 nM	CN(C)CCN(Cc1ccccc1)S(N)(=O)=O [2i, Benzyl (2-(dimethylamino)ethyl)sulfamide]
90.2 nM	16.5 nM	29.5 nM	98.5 nM	NS(=O)(=O)NCc1cccnc1 [2j, (Pyridin-3-ylmethyl)sulfamide]
48.2 nM	66.8 nM	73.2 nM	22.6 nM	NS(=O)(=O)NCc1cccs1 [2k, (Thiophen-2-ylmethyl) sulfamide]
92.3 nM	72.5 nM	126 nM	59.6 nM	CCN(CC)CCN(C)S(N)(=O)=O [2l, (2-(Diethylamino)ethyl)(methyl)sulfamide]
42.8 nM	25.9 nM	58.1 nM	62.8 nM	CCOC(=O)C1CCN(S(N)(=O)=O)CC1 [2m, Ethyl 1-sulfamoylpiperidine-4-carboxylate]
99.3 nM	35.1 nM	72.5 nM	497 nM	NS(=O)(=O)N1CCC(N2CCCCC2)CC1 [2n, [1,4'-Bipiperidine]-1'-sulphonamide]
66.9 nM	101 nM	82.1 nM	59.2 nM	NS(=O)(=O)N1CCOCC1 [2o, Morpholine-4-sulphonamide]
59.4 nM	40.2 nM	46.2 nM	88.2 nM	NC(=O)C1CCN(S(N)(=O)=O)CC1 [2p, 1-Sulfamoylpiperidine-4-carboxamide]
52.9 nM	100 nM	78.2 nM	68.9 nM	NS(=O)(=O)N1CCNCC1 [2q, Piperazine-1-sulphonamide hydrochloride]
316 nM	116 nM	94.7 nM	868 nM	CC1Cc2ccccc2N1S(N)(=O)=O (centres unmarked) [2r, 2-Methylindoline-1-sulphonamide]
59.4 nM	39.3 nM	68 nM	29.6 nM	NS(=O)(=O)Nc1ncccn1 [2s, N-(Pyrimidin-2-yl)sulfamide]
89.5 nM	114 nM	34.2 nM	231 nM	NS(=O)(=O)N1CCCc2ccccc21 [2t, 3,4-Dihydroquinoline-1(2H)-sulphonamide]
56.7 nM	72.3 nM	25.4 nM	160 nM	NS(=O)(=O)Nc1cccc2ccccc12 [2u, N-(Naphthalen-1-yl)sulfamide]
472 nM	95.7 nM	102 nM	723 nM	NS(=O)(=O)N1CCc2ccccc21 [2v, Indoline-1-sulphonamide]
76.3 nM	224 nM	38.5 nM	45.7 nM	NS(=O)(=O)Nc1ccc(F)cc1F [2w, N-(2,4-Difluorophenyl)sulfamide]
